Assay [1] relates to Sweetpotato Whitefly-crawler (Bemisia tabaci) (WF) (BEMITA). Description: Sweetpotato whitefly-crawler (WF) foliar spray assay on cotton plants. Conditions: 216 h, 200 ppm foliar spray on cotton plants, graded after 9 days, Abbott-corrected % control, disclosed compounds (TABLE 2), read-out: WF % Control (or Mortality) rating. It is filed as in vivo. As for the experimental part:
Foliar spray assay for WF was prepared as follows: Cotton plants (Gossypium hirsutum) grown in 3-inch pots, with 1 small (4-5 cm) true leaf, were used as test substrate. The plants were infested with 200-400 whitefly eggs 4-5 days prior to chemical application. Four pots with individual plants were used for each treatment. Tested compounds (2 mg) were dissolved in 1 mL of acetone solvent, forming stock solutions of 2000 ppm tested compound.
The stock solutions were diluted ten times with 0.025% TWEEN® 20 surfactant in H2O (diluents) to obtain the solution at 200 ppm tested compound. A hand-held aspirator-type sprayer was used for spraying the solution to both sides of cotton leaves until runoff. The control plants (solvent check) were sprayed with the diluent only containing 10% by volume of acetone solvent. Treated plants were held in a holding room for 9 days at approximately 25° C. and ambient relative humidity (RH) prior to grading. Evaluation was conducted by counting the number of live 3-4 nymph stage per plant under a microscope. Percent control was measured by using Abbott's correction formula (W. S. Abbott, “A Method of Computing the Effectiveness of an Insecticide,” J. Econ. Entomol. 18 (1925), pp. 265-267) as follows. Corrected % Control=100*(X−Y)/X
X=No. of live nymphs on solvent check plants and
Y=No. of live nymphs on treated plants.
(§1) The comparative compounds were tested for insecticidal activities against GPA and WF pests using the same test protocols described above for the disclosed compounds.

The subject of assay [2] is Green Peach Aphid (Myzus persicae) (GPA) (MYZUPE). Nature of the assay: Green peach aphid (GPA) foliar spray bioassay on cabbage seedlings. Conditions: 72 h, 200 ppm foliar spray on cabbage seedlings, graded after three days, Abbott-corrected % control, disclosed compounds (TABLE 2), read-out: GPA % Control (or Mortality) rating. It is filed as in vivo. As for the experimental part: Bioassay for GPA was prepared as follows: Cabbage seedlings grown in 3-inch pots, with 2-3 small (3-5 cm) true leaves, were used as test substrate. The seedlings were infested with 20-50 GPA (adult and nymph stages) one day prior to chemical application. Four pots with individual seedlings were used for each treatment. The tested compounds (2 mg) were dissolved in 2 mL of acetone/methanol (1:1) solvent to form stock solutions of 1000 ppm tested compound. The stock solutions were diluted five times with an aqueous solution containing 0.025% TWEEN® 20 surfactant, which is polyoxyethylene (20) sorbitan monolaurate, to obtain the solution at 200 ppm tested compound. A hand-held aspirator-type sprayer was used for spraying the solution to both sides of cabbage leaves until runoff. The control plants (solvent check) were sprayed with the diluent only containing 20% by volume of acetone/methanol (1:1) solvent. Treated plants were held in a holding room for three days at approximately 25° C. and ambient relative humidity (RH) prior to grading. Evaluation was conducted by counting the number of live aphids per plant under a microscope. Percent control was measured by using Abbott's correction formula (W. S. Abbott, “A Method of Computing the Effectiveness of an Insecticide,” J. Econ. Entomol. 18 (1925), pp. 265-267) as follows. Corrected % Control=100*(X−Y)/X
X=No. of live aphids on solvent check plants and
Y=No. of live aphids on treated plants
as §1

A value given as a limit tells only on which side of the number the result lay.

On to `O=C1c2cn(-c3cccnc3)nc2CCN1c1cccc(C(F)(F)F)c1` [Compound F4, 2-(3-Pyridyl)-5-[3-(trifluoromethyl)phenyl]-6,7-dihydropyrazolo[4,3-c]pyridin-4-one], for which the mortality at 200 ppm in assay [1] is 0 to 80%; in assay [2], 80 to 100%.

Take `O=C1c2cn(-c3cccnc3)nc2CCN1c1ccnc(C(F)(F)F)c1` [Compound F5, 2-(3-Pyridyl)-5-[2-(trifluoromethyl)-4-pyridyl]-6,7-dihydropyrazolo[4,3-c]pyridin-4-one]: the mortality at 200 ppm in assay [1] lay in the range of 0 to 80%; in assay [2], 80 to 100%.

For the molecule `CC(C)N1CCc2nn(-c3cccnc3)cc2C1=O` [Compound F6, 5-Isopropyl-2-(3-pyridyl)-6,7-dihydropyrazolo[4,3-c]pyridin-4-one], the mortality at 200 ppm in assay [1] and in assay [2] was 80 to 100% throughout.

On to `O=C1c2cn(-c3cccnc3)nc2CCN1c1cc(C(F)(F)F)ccn1` [Compound F7, 2-(3-Pyridyl)-5-[4-(trifluoromethyl)-2-pyridyl]-6,7-dihydropyrazolo[4,3-c]pyridin-4-one], for which the mortality at 200 ppm in assay [1] and in assay [2] was 80 to 100% throughout.

For `CCOC(=O)CN1CCc2nn(-c3cccnc3)cc2C1=O` [Compound F8, ethyl 2-(4-oxo-2-(pyridin-3-yl)-6,7-dihydro-2H-pyrazolo[4,3-c]pyridin-5(4H)-yl)acetate], the mortality at 200 ppm in assay [1] and in assay [2] was 80 to 100% throughout.

As for `O=C1c2cn(-c3cccnc3)nc2CCN1c1ncccc1C(F)(F)F` [Compound F10, 2-(3-Pyridyl)-5-[3-(trifluoromethyl)-2-pyridyl]-6,7-dihydropyrazolo[4,3-c]pyridin-4-one], the mortality at 200 ppm in assay [1] and in assay [2] was 0 to 80% each time.

In the case of `CSCCC(=O)N1CCc2nn(-c3cccnc3)cc2C1=O` [Compound F12, 5-(3-(methylthio)propanoyl)-2-(pyridin-3-yl)-6,7-dihydro-2H-pyrazolo[4,3-c]pyridin-4(5H)-one], the mortality at 200 ppm is 0 to 80% in assay [1] and 80 to 100% in assay [2].

Consider `O=C1c2cn(-c3cccnc3)nc2CCN1c1ccc(C(F)(F)F)cc1` [Compound F13, 2-(3-Pyridyl)-5-[4-(trifluoromethyl)phenyl]-6,7-dihydropyrazolo[4,3-c]pyridin-4-one], for which the figures for the mortality at 200 ppm in assay [1] and in assay [2] were 0 to 80% and 80 to 100%, respectively.

On to `O=C1c2cn(-c3cccnc3)nc2CCN1c1ccc(OC(F)(F)F)cc1` [Compound F14, 2-(3-Pyridyl)-5-[4-(trifluoromethoxy)phenyl]-6,7-dihydropyrazolo[4,3-c]pyridin-4-one], for which the mortality at 200 ppm is 0 to 80% in assay [1] and 80 to 100% in assay [2].

Turning to `COc1ccccc1CN1CCc2nn(-c3cccnc3)cc2C1=O` [Compound F15, 5-[(2-Methoxyphenyl)methyl]-2-(3-pyridyl)-6,7-dihydropyrazolo[4,3-c]pyridin-4-one], the mortality at 200 ppm in assay [1] fell in the range of 80 to 100%; in assay [2], 0 to 80%.

`O=C1c2cn(-c3cccnc3)nc2CCN1Cc1ccccc1F` [Compound F17, 5-(2-fluorobenzyl)-2-(pyridin-3-yl)-6,7-dihydro-2H-pyrazolo[4,3-c]pyridin-4(5H)-one]: the mortality at 200 ppm fell in the range of 80 to 100% in assay [1] and 0 to 80% in assay [2].

For `COc1cccc(N2CCc3nn(-c4cccnc4)cc3C2=O)n1` [Compound F18, 5-(6-Methoxy-2-pyridyl)-2-(3-pyridyl)-6,7-dihydropyrazolo[4,3-c]pyridin-4-one], the mortality at 200 ppm in assay [1] and in assay [2] was 0 to 80% each time.

`O=C1c2cn(-c3cccnc3)nc2CCN1CCSCCC(F)(F)F` [Compound F19, 2-(pyridin-3-yl)-5-(2-((3,3,3-trifluoropropyl)thio)ethyl)-6,7-dihydro-2H-pyrazolo[4,3-c]pyridin-4(5H)-one]: the mortality at 200 ppm in assay [1] and in assay [2] was 80 to 100% in each case.

Take `CSCN1CCc2nn(-c3cccnc3)cc2C1=O` [Compound F20, 5-(Methylsulfanylmethyl)-2-(3-pyridyl)-6,7-dihydropyrazolo[4,3-c]pyridin-4-one]: the mortality at 200 ppm in assay [1] and in assay [2] was 80 to 100% each time.

`O=C1c2cn(-c3cccnc3)nc2CCN1c1cncc(C(F)(F)F)c1` [Compound F21, 2-(3-Pyridyl)-5-[5-(trifluoromethyl)-3-pyridyl]-6,7-dihydropyrazolo[4,3-c]pyridin-4-one]: the mortality at 200 ppm in assay [1] and in assay [2] was 80 to 100% throughout.

On to `O=C1c2cn(-c3cccnc3)nc2CCN1c1cccc(OC(F)(F)F)c1` [Compound F22, 2-(3-Pyridyl)-5-[3-(trifluoromethoxy)phenyl]-6,7-dihydropyrazolo[4,3-c]pyridin-4-one], for which the mortality at 200 ppm in assay [1] and in assay [2] was 80 to 100% in each case.

Consider `COc1ccc(CN2CCc3nn(-c4cccnc4)cc3C2=O)cc1` [Compound F23, 5-[(4-Methoxyphenyl)methyl]-2-(3-pyridyl)-6,7-dihydropyrazolo[4,3-c]pyridin-4-one], for which the mortality at 200 ppm in assay [1] and in assay [2] was 80 to 100% throughout.

For the molecule `CN1CCc2nn(-c3cccnc3)cc2C1=O` [Compound F28, 5-methyl-2-(pyridin-3-yl)-6,7-dihydro-2H-pyrazolo[4,3-c]pyridin-4(5H)-one], the results for the mortality at 200 ppm in assay [1] and in assay [2] were 0 to 80% and 80 to 100%, respectively.

For `O=C1c2cn(-c3cccnc3)nc2CCN1Cc1cccc(C(F)(F)F)c1` [Compound F29, 2-(3-Pyridyl)-5-[[3-(trifluoromethyl)phenyl]methyl]-6,7-dihydropyrazolo[4,3-c]pyridin-4-one], the mortality at 200 ppm in assay [1] and in assay [2] was 80 to 100% each time.

As for `C=CCN1CCc2nn(-c3cccnc3)cc2C1=O` [Compound F31, 5-allyl-2-(pyridin-3-yl)-6,7-dihydro-2H-pyrazolo[4,3-c]pyridin-4(5H)-one], the mortality at 200 ppm in assay [1] was in the range of 0 to 80%; in assay [2], 80 to 100%.

In the case of `O=C1c2cn(-c3cccnc3)nc2CCN1Cc1ccccc1C(F)(F)F` [Compound F32, 2-(3-Pyridyl)-5-[[2-(trifluoromethyl)phenyl]methyl]-6,7-dihydropyrazolo[4,3-c]pyridin-4-one], the mortality at 200 ppm is 80 to 100% in assay [1] and 0 to 80% in assay [2].

Consider `O=C1c2cn(-c3cccnc3)nc2CCN1c1ccc(C(F)(F)F)nc1` [Compound F33, 2-(3-Pyridyl)-5-[6-(trifluoromethyl)-3-pyridyl]-6,7-dihydropyrazolo[4,3-c]pyridin-4-one], for which the values for the mortality at 200 ppm in assay [1] and in assay [2] were 0 to 80% and 80 to 100%, respectively.

Turning to `O=C1c2cn(-c3cccnc3)nc2CCN1c1ncccn1` [Compound F34, 2-(3-Pyridyl)-5-pyrimidin-2-yl-6,7-dihydropyrazolo[4,3-c]pyridin-4-one], the mortality at 200 ppm in assay [1] and in assay [2] was 80 to 100% each time.

Consider `O=C1c2cn(-c3cccnc3)nc2CCN1c1ccc(C(F)(F)F)cn1` [Compound F37, 2-(pyridin-3-yl)-5-(5-(trifluoromethyl)pyrdin-2-yl)-6,7-dihydro-2H-pyrazolo[4,3-c]pyridin-4(5H)-one], for which the mortality at 200 ppm in assay [1] and in assay [2] was 80 to 100% in each case.

Turning to `O=C1c2cn(-c3cccnc3)nc2CCN1c1cccc(-c2ncccn2)n1` [Compound F38, 2-(3-Pyridyl)-5-(6-pyrimidin-2-yl-2-pyridyl)-6,7-dihydropyrazolo[4,3-c]pyridin-4-one], the mortality at 200 ppm in assay [1] is < 0%; in assay [2], 0 to 80%.

Consider `N#CCN1CCc2nn(-c3cccnc3)cc2C1=O` [Compound F39, 2-[4-Oxo-2-(3-pyridyl)-6,7-dihydropyrazolo[4,3-c]pyridin-5-yl]acetonitrile], for which the mortality at 200 ppm in assay [1] lay in the range of 0 to 80%; in assay [2], 80 to 100%.

On to `CSCCN1CCc2nn(-c3cccnc3)cc2C1=O` [Compound F40, 5-(2-(methylthio)ethyl)-2-(pyridin-3-yl)-6,7-dihydro-2H-pyrazolo[4,3-c]pyridin-4(5H)-one], for which the mortality at 200 ppm in assay [1] and in assay [2] was 80 to 100% in each case.

The values above are taken from patent publication US9504251B2, “Pesticidal compositions and related methods” (Dow AgroSciences LLC, priority 2014, dated 2016).
